From ChEMBL document CHEMBL4706583, “2-Anilinoquinoline based arylamides as broad spectrum anticancer agents with B-RAF/C-RAF kinase inhibitory effects: Design, synthesis, in vitro cell-based and oncogenic kinase assessments” (Eur J Med Chem, 2020)

How the values were obtained:
[1] = target: RAF proto-oncogene serine/threonine-protein kinase (Homo sapiens, UniProt P04049); experiment: Inhibition of human CRAF at 10 uM using MEK1 (K97R) as substrate in presence of [gamma-33P]ATP by scintillation counting method relative to control
Chain of RAF proto-oncogene serine/threonine-protein kinase (P04049 whole entry): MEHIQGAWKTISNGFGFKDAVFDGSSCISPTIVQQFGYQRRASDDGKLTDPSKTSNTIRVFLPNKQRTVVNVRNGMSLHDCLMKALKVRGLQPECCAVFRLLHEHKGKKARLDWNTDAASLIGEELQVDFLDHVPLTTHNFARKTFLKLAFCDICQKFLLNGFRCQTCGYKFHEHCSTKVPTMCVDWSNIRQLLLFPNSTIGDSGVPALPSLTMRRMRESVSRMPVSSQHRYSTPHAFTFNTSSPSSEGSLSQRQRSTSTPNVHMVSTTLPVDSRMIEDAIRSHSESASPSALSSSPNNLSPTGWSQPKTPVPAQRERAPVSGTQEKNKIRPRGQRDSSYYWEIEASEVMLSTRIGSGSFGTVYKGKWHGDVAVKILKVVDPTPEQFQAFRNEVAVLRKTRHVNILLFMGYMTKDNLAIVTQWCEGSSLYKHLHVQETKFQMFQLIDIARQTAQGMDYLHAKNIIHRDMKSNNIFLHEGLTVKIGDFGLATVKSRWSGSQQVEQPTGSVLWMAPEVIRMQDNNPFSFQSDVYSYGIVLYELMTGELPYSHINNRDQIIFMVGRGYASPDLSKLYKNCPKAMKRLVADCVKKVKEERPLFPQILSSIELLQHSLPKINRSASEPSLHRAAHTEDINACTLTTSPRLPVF

HCT-116 [2] = experiment: Cell cycle arrest in human HCT-116 cells assessed as accumulation at sub-G1 phase at 5 uM measured after 48 hrs by propidium iodide staining based flow cytometry (reference value: 17%); assay type: functional
[3] = target: Serine/threonine-protein kinase B-raf (Homo sapiens, UniProt P15056); experiment: Inhibition of human BRAF at 10 uM using MEK1 (K97R) as substrate in presence of [gamma-33P]ATP by scintillation counting method relative to control
Chain of Serine/threonine-protein kinase B-raf (P15056 whole entry, the tested form may be a part): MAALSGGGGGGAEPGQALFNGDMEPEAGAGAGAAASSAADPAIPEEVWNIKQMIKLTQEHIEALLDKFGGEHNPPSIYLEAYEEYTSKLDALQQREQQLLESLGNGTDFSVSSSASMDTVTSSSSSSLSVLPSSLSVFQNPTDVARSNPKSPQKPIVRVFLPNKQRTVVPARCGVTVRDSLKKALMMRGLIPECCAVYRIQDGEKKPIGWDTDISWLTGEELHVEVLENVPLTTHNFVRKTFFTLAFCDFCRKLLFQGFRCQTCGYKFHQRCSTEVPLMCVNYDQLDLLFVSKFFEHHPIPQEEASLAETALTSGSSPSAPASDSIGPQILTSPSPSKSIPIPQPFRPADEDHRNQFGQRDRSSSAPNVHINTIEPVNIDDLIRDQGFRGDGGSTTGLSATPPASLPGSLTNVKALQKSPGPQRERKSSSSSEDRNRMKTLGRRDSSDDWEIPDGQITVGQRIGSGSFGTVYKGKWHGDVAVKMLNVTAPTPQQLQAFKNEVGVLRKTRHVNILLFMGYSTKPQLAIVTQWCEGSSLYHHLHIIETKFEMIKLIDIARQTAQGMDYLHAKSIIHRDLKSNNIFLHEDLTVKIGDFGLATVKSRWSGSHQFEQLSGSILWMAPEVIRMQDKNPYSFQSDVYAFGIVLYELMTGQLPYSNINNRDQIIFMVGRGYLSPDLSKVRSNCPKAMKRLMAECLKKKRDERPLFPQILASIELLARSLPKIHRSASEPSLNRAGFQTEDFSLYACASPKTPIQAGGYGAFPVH

[4] = target: Discoidin domain-containing receptor 2 (Homo sapiens) (UniProt Q16832); experiment: Inhibition of human DDR2 at 10 uM using KKSRGDYMTMQIG as substrate in presence of [gamma-33P]ATP by scintillation counting method relative to control
Chain of Discoidin domain-containing receptor 2 (Homo sapiens) (Q16832 whole entry, the tested form may be a part): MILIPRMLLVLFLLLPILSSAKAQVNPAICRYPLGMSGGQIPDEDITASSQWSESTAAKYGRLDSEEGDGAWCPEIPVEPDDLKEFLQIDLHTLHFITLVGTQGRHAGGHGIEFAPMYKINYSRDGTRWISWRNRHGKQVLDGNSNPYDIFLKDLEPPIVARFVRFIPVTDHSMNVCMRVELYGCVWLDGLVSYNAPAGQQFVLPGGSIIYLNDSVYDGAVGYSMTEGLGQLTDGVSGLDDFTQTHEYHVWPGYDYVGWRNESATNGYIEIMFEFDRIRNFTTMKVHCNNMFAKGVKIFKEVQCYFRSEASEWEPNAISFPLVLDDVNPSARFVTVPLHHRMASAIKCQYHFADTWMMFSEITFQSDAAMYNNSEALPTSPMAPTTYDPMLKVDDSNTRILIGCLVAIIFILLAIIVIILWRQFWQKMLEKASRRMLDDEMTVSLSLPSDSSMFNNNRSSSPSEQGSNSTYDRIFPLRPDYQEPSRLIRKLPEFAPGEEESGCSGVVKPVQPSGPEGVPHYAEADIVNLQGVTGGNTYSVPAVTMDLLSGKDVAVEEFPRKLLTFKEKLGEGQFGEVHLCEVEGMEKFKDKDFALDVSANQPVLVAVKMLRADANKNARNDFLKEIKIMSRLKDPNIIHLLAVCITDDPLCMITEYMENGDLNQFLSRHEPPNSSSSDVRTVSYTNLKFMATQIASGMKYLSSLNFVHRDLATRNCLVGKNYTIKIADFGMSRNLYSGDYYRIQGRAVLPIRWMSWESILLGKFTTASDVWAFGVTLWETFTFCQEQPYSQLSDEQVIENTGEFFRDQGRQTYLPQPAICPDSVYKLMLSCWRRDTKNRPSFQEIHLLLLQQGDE

HCT-116 [5] = experiment: Cell cycle arrest in human HCT-116 cells assessed as accumulation at sub-G1 phase at 1.25 uM measured after 48 hrs by propidium iodide staining based flow cytometry (reference value: 17%); assay type: functional
HCT-116 [6] = experiment: Cell cycle arrest in human HCT-116 cells assessed as accumulation at G1/G0 phase at 2.5 uM measured after 48 hrs by propidium iodide staining based flow cytometry (reference value: 52.2%); assay type: functional
HCT-116 [7] = experiment: Cell cycle arrest in human HCT-116 cells assessed as accumulation at G2/M phase at 1.25 uM measured after 24 hrs by propidium iodide staining based flow cytometry (reference value: 19.2%); assay type: functional
HCT-116 [8] = experiment: Cell cycle arrest in human HCT-116 cells assessed as accumulation at S phase at 5 uM measured after 24 hrs by propidium iodide staining based flow cytometry (reference value: 7.2%); assay type: functional
HCT-116 [9] = experiment: Cell cycle arrest in human HCT-116 cells assessed as accumulation at sub-G1 phase at 2.5 uM measured after 24 hrs by propidium iodide staining based flow cytometry (reference value: 8.7%); assay type: functional
HCT-116 [10] = experiment: Cell cycle arrest in human HCT-116 cells assessed as accumulation at G2/M phase at 5 uM measured after 24 hrs by propidium iodide staining based flow cytometry (reference value: 19.2%); assay type: functional
HCT-116 [11] = experiment: Cell cycle arrest in human HCT-116 cells assessed as accumulation at G1/G0 phase at 5 uM measured after 24 hrs by propidium iodide staining based flow cytometry (reference value: 65%); assay type: functional

Compound | inhibition [1] [%] | Activity (HCT-116 [2]) [%] | inhibition [3] [%] | inhibition [4] [%] | Activity (HCT-116 [5]) [%] | Activity (HCT-116 [6]) [%] | Activity (HCT-116 [7]) [%] | Activity (HCT-116 [8]) [%] | Activity (HCT-116 [9]) [%] | Activity (HCT-116 [10]) [%] | Activity (HCT-116 [11]) [%]
CCN1CCN(c2cc(C(=O)Nc3cccc(Nc4ccc5c(OC)cccc5n4)c3)cc(C(F)(F)F)c2)CC1 | 94.4 | 14.1 | 94.4 | 67.5 | 21 | 57.1 |  |  |  |  | 
COc1cccc2nc(Nc3cccc(NC(=O)c4ccc(N5CCN(C)CC5)c(C(F)(F)F)c4)c3)ccc12 |  |  |  |  |  |  | 15.6 | 6.3 | 7.9 | 13.7 | 71
